Numbers after ± are expanded uncertainties.
Test: mn = molality of the nth substance listed, in mol/kg
Conditions: for electrical conductivity: 100 kPa, Liquid, Frequency=0.002 MHz, Alternating current cell with electrodes; for surface tension liquid-gas: Ring tensiometer

CCCCCCCCCCCC[N+](C)(C)C.[Br-] [dodecyltrimethylammonium bromide] + O
Conditions	electrical conductivity, 303.15 K [S/m]	electrical conductivity, 313.15 K [S/m]	electrical conductivity, 323.15 K [S/m]	surface tension liquid-gas, 313.15 K [mN/m]
m1 = 6e-06	–	–	–	65.2 ± 2.7
m1 = 2.5e-05	–	–	–	63.6 ± 2.7
m1 = 5.6e-05	–	–	–	62.5 ± 2.6
m1 = 0.000135	–	–	–	61.3 ± 2.6
m1 = 0.000263	–	–	–	58.3 ± 2.4
m1 = 0.000739	–	–	–	54.7 ± 2.3
m1 = 0.001308	–	–	–	51.3 ± 2.1
m1 = 0.00178	0.0194 ± 0.0019	0.0234 ± 0.0023	0.0282 ± 0.0028	–
m1 = 0.00353	0.0374 ± 0.0037	0.0467 ± 0.0047	0.0547 ± 0.0055	–
m1 = 0.004064	–	–	–	46 ± 1.9
m1 = 0.00524	0.0553 ± 0.0055	0.0668 ± 0.0067	0.0802 ± 0.008	–
m1 = 0.006048	–	–	–	43.3 ± 1.8
m1 = 0.00692	0.0727 ± 0.0073	0.0871 ± 0.0087	0.105 ± 0.01	–
m1 = 0.008433	–	–	–	39.5 ± 1.7
m1 = 0.00857	0.0893 ± 0.0089	0.107 ± 0.011	0.128 ± 0.013	–
m1 = 0.01019	0.106 ± 0.011	0.126 ± 0.013	0.152 ± 0.015	–
m1 = 0.01178	0.121 ± 0.012	0.145 ± 0.015	0.174 ± 0.017	–
m1 = 0.01333	0.136 ± 0.014	0.163 ± 0.016	0.196 ± 0.02	–
m1 = 0.01486	0.149 ± 0.015	0.18 ± 0.018	0.216 ± 0.022	–
m1 = 0.01636	0.157 ± 0.016	0.193 ± 0.019	0.234 ± 0.023	–
m1 = 0.01784	0.162 ± 0.016	0.201 ± 0.02	–	–
m1 = 0.01789	–	–	0.247 ± 0.025	–
m1 = 0.01929	0.166 ± 0.017	0.208 ± 0.021	0.258 ± 0.026	–
m1 = 0.01941	–	–	–	36.2 ± 1.5
m1 = 0.02071	0.17 ± 0.017	0.213 ± 0.021	0.265 ± 0.027	–
m1 = 0.02211	0.174 ± 0.017	0.219 ± 0.022	0.272 ± 0.027	–
m1 = 0.02348	0.178 ± 0.018	0.224 ± 0.022	0.279 ± 0.028	–
m1 = 0.02483	0.181 ± 0.018	0.229 ± 0.023	0.285 ± 0.029	–
m1 = 0.02615	0.185 ± 0.019	0.234 ± 0.023	0.292 ± 0.029	–
m1 = 0.02746	0.189 ± 0.019	0.238 ± 0.024	0.297 ± 0.03	–
m1 = 0.02874	0.192 ± 0.019	0.243 ± 0.024	0.304 ± 0.03	–
m1 = 0.03	0.195 ± 0.02	0.247 ± 0.025	0.31 ± 0.031	–
m1 = 0.0309	–	–	–	37.9 ± 1.6
m1 = 0.0456	–	–	–	38.3 ± 1.6
m1 = 0.07211	–	–	–	38.8 ± 1.6
m1 = 0.1062	–	–	–	38.9 ± 1.6

— the NIST ThermoML archive (doi:10.1021/acs.jced.8b00372)
